Assay results taken from patent US20210338652A1, “COMPOSITION AND USE FOR THE TREATMENT OF PARKINSON'S DISEASE AND RELATED DISORDERS” (CHASE THERAPEUTICS CORPORATION, priority 2018, published 2021).
Like-named read-outs stand apart in the source and are kept apart here.

Key:
[1] = test system: humans; settings: for Maximal Tolerated Dose (MTD): oral pramipexole escalation to max 6 mg, ondansetron 8 mg or aprepitant 80 mg where combined
[2] = in vivo; cited from earlier work

Compound	dose limiting toxicity ([1]; both, human, in vivo)	Maximal Tolerated Dose (MTD) ([1]; subject 1001)	Maximal Tolerated Dose (MTD) ([1]; subject 1006)	Maximal Tolerated Dose (MTD) ([1]; subject 1007)	Maximal Tolerated Dose (MTD) ([1]; subject 1008)	plasma half-life [2]
CCCN[C@H]1CCc2nc(N)sc2C1 [Pramipexole, (S)-6-propylamino-4,5,6,7-tetrahydro-1,3-benzothiazole-2-amine]	gastro-intestinal adverse event in all 4 subjects	2.0 mg	<0.5 mg	4.0 mg	1.0 mg	
C=CCN1C[C@H](C(=O)N(CCCN(C)C)C(=O)NCC)C[C@@H]2c3cccc4[nH]cc(c34)C[C@H]21 [cabergoline, (6aR,9R,10aR)—N-[3-(dimethylamino)propyl]-N-(ethylcarbamoyl)-7-prop-2-enyl-6,6a,8,9,10,10a-hexahydro-4H-indolo[4,3-fg]quinoline-9-carboxamide]						about 65 hours
